This note sets out measurements from US20250122171A1, “Substituted Amine Compounds, Compositions and Methods of Use” (Deep Apple Therapeutics, Inc., priority 2023, published 2025).

Some results are limits rather than exact numbers.

The target of this assay is T1, human MRGPRX2 (Homo sapiens, UniProt Q96LB1).
T1 construct: expressed in transfected cells; host or cells: FlpIn TRex HEK293 (TRex-MRGPRX2-HEK), doxycycline-induced
T1 sequence (Q96LB1 1-330): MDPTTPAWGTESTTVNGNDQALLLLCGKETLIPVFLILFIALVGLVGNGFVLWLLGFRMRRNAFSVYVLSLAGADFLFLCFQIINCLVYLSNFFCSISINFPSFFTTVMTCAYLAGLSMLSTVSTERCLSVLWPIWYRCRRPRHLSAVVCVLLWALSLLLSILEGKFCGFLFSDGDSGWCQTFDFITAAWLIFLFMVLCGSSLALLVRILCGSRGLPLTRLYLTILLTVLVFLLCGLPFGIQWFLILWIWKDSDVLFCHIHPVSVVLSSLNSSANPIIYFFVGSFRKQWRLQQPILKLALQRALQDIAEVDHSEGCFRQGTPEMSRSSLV
Briefly: MRGPRX2 Activity Assay (IP-1 HTRF, antagonist mode). It is filed as cell-based. As to conditions: FlpIn TRex-MRGPRX2-HEK293 cells; versus 1 μM Cortistatin-14 agonist; 30 minutes preincubation. The procedure:
FlpIn TRex-MRGPRX2-HEK293 cells (herein TRex-MRPGRX2-HEK) stably transfected to express human MRGPRX2 were maintained at 37° C. with 5% CO2 and grown in DMEM supplemented with 10% FBS, 1% L-Glutamate, 1% penicillin/streptomycin, 100 ug/mL Hygromycin B, and 15 ug/mL Blasticidin.
GOI (MRGPRX2) expression was induced with 100 ng/mL of Doxycycline 18-24 hours prior to experiment, in flask. On the day of experiment, cells were lifted with TripLE Express and seeded in 384-well white walled opaque bottomed, assay plates, at 8,000 cells per well in 5 uL freshly made assay buffer (HBSS, 20 mM HEPES, 0.1% BSA and 10 mM LiCl). Compounds solubilized in 100% DMSO at 30 mM were serially diluted (1:4) first in 100% DMSO, and an intermediate plate of assay buffer was used to establish a final top concentration of 30 uM (in assay plate). Final DMSO concentration was kept constant at 1% across assay plates. […], at 30 mM stock concentration was solubilized in HBSS+0.1% BSA, stored at −20° C. in 5 μL aliquots and discarded after one freeze-thaw cycle. […].
Antagonist equilibrium was established with 30 minutes preincubation, followed by no wash, direct addition, and stimulation of agonist for 1 hour at 37° C./5% CO2. IP-1 standards and HTRF detection reagents were added according to the IP-one Gq kit protocol purchased from CisBio (part number 62IPAPEJ). The plate was read on an EnVision XCite plate reader. The HTRF ratio was then calculated from raw data (channel1/channel2×10,000) and analyzed using either GraphPad Prism or a custom Python script to calculate IC50 using Log[Antagonist] vs. response (4 parameter) nonlinear regression.

In turn, `C[C@@H](C(=O)Nc1cn2c(n1)[C@@H](O)C[C@H]2c1cc(F)cc(F)c1)N1CCC(F)(F)[C@@H](c2ccc(=O)[nH]c2)C1` (single isomer, unassigned) [Compound 517] displayed an IC50 above 30000 nM.

As for `C[C@@H](C(=O)Nc1nc2ccccc2s1)N1CCC(F)(F)[C@@H](c2cc[n+]([O-])cc2)C1` (single isomer, unassigned) [Compound 84], the IC50 was 12700 nM. In other words, the double-digit micromolar range.

`C[C@H](C(=O)Nc1cn(Cc2ccc(F)cc2F)cn1)N1CCC(F)(F)[C@@H](c2cc[n+]([O-])cc2)C1` (single isomer, unassigned) [Compound 2]: the IC50 came to 2950 nM.

Consider `C[C@@H](C(=O)Nc1cn2c(n1)CC[C@@H]2c1cc(F)cc(F)c1)N1CCC(F)(F)[C@H](c2c[nH]c(=O)c(CO)c2)C1` (single isomer, unassigned) [Compound 524], for which the IC50 was 50 nM.

`C[C@H](C(=O)Nc1cn2c(n1)CC[C@H]2c1cc(F)cc(F)c1)N1CCC(F)(F)[C@@H](c2cc[n+]([O-])cc2)C1` (single isomer, unassigned) [Compound 486] gave an IC50 of 1180 nM. Compared with the last compound, the IC50 is about 24-fold higher.

Compound `C[C@@H](C(=O)Nc1cn(Cc2cc(F)c(F)c(F)c2F)cn1)N1CCC(F)(F)[C@@H](c2cc[n+]([O-])cc2)C1` [Compound 32, 4-[(3S)-4,4-difluoro-1-[(1S)-1-({1-[(2,3,4,5-tetrafluorophenyl)methyl]imidazol-4-yl}carbamoyl)ethyl]piperidin-3-yl]pyridin-1-ium-1-olate] registered an IC50 of 104 nM.

As for `C[C@@H](C(=O)Nc1cn(Cc2cccc(F)c2)cn1)N1CCC(F)(F)[C@@H](c2cc[n+]([O-])cc2)C1` [Compound 38, 4-((S)-4,4-difluoro-1-((S)-1-((1-(3-fluorobenzyl)-1H-imidazol-4-yl)amino)-1-oxopropan-2-yl)piperidin-3-yl)pyridine 1-oxide], the IC50 worked out at 93 nM.

Turning to `C[C@@H](C(=O)Nc1cn(Cc2cc(F)cc(F)c2)c(C(F)F)n1)N1CCC(F)(F)CC1` [Compound 492, (S)—N-(1-(3,5-difluorobenzyl)-2-(difluoromethyl)-1H-imidazol-4-yl)-2-(4,4-difluoropiperidin-1-yl)propanamide], the IC50 was found to be 35 nM.

In turn, `C[C@@H](C(=O)Nc1cn(Cc2cc(F)cc(F)c2)c(C(F)(F)F)n1)N1CCC(F)(F)[C@@H](c2cc[n+]([O-])cc2)C1` (single isomer, unassigned) [Compound 25] had an IC50 above 10000 nM.

The compound `C[C@@H](C(=O)Nc1nc2cc3c(cc2s1)OCO3)N1CCC(F)(F)[C@@H](c2cc[n+]([O-])cc2)C1` (single isomer, unassigned) [Compound 12] displayed a 50% inhibitory concentration (IC50) of 196 nM. This lies in the sub-micromolar range.

Take `C[C@H](C(=O)Nc1cn(Cc2cc(F)cc(F)c2)cn1)N1CCC(F)(F)[C@H](c2c[nH]c(=O)c(CO)c2)C1` (single isomer, unassigned) [Compound 74]: the IC50 was above 30000 nM.

On to `C[C@@H](C(=O)Nc1cn(Cc2cc(F)c(Cl)c(F)c2)cn1)N1CCC(F)(F)[C@@H](c2cc[n+]([O-])cc2)C1` [Compound 44, 4-((S)-1-((S)-1-((1-(4-chloro-3,5-difluorobenzyl)-1H-imidazol-4-yl)amino)-1-oxopropan-2-yl)-4,4-difluoropiperidin-3-yl)pyridine 1-oxide], for which the IC50 worked out at 241 nM.

On to `Cc1nc(NC(=O)[C@@H](C)N2CCC(F)(F)[C@@H](c3cc[n+]([O-])cc3)C2)cn1Cc1cc(F)cc(F)c1` (single isomer, unassigned) [Compound 20], for which the IC50 is 193 nM.

The compound `C[C@@H](C(=O)Nc1cn(Cc2cc(F)c(Cl)cc2F)cn1)N1CCC(F)(F)[C@@H](c2cc[n+]([O-])cc2)C1` [Compound 45, 4-((S)-1-((S)-1-((1-(4-chloro-2,5-difluorobenzyl)-1H-imidazol-4-yl)amino)-1-oxopropan-2-yl)-4,4-difluoropiperidin-3-yl)pyridine 1-oxide] showed an IC50 of 885 nM. Against the preceding compound, the IC50 is about 4.6-fold higher.

For `C[C@@H](C(=O)Nc1cn2c(n1)CC[C@@H]2c1cc(F)cc(F)c1)N1CCC(F)(F)[C@H](c2ccc(=O)[nH]c2)C1` (single isomer, unassigned) [Compound 495], the IC50 is above 30000 nM.

As for `C[C@H](C(=O)Nc1cn2c(n1)CC[C@@H]2c1cc(F)cc(F)c1)N1CCOCC1` (single isomer, unassigned) [Compound 512], the IC50 was 4080 nM.

Regarding `C[C@@H](C(=O)Nc1cn2c(n1)CC[C@@H]2c1cc(F)cc(F)c1)N1CCC(F)(F)[C@@H](c2cc[n+]([O-])c(CN3CCC(F)(F)CC3)c2)C1` (single isomer, unassigned) [Compound 534], the IC50 was above 30000 nM.

Regarding `Cc1nc(NC(=O)[C@H](C)N2CCC(F)(F)[C@@H](c3cc[n+]([O-])cc3)C2)cn1Cc1cc(F)cc(C#N)c1` (single isomer, unassigned) [Compound 17], the IC50 stood at 125 nM.

On to `C[C@@H](C(=O)Nc1cn2c(n1)CC[C@@H]2c1cc(F)cc(F)c1)N1CCC(F)(F)[C@@H](c2ccc(=O)n(C)c2)C1` (single isomer, unassigned) [Compound 532], for which the IC50 turned out to be 5200 nM.

Take `C[C@@H](C(=O)Nc1cn(Cc2ccc(Cl)c(F)c2)cn1)N1CCC(F)(F)[C@@H](c2cc[n+]([O-])cc2)C1` [Compound 47, 4-((S)-1-((S)-1-((1-(4-chloro-3-fluorobenzyl)-1H-imidazol-4-yl)amino)-1-oxopropan-2-yl)-4,4-difluoropiperidin-3-yl)pyridine 1-oxide]: the IC50 is 775 nM.

`C[C@@H](C(=O)Nc1cn(Cc2cc(F)cc(F)c2)cn1)N1CCC(F)(F)[C@H](c2c[nH]c(=O)c(CO)c2)C1` (single isomer, unassigned) [Compound 73] registered an IC50 of 8560 nM.

As for `C[C@@H](C(=O)Nc1cn(Cc2ccc(F)c(F)c2)cn1)N1CCC(F)(F)[C@@H](c2cc[n+]([O-])cc2)C1` [Compound 46, 4-((S)-1-((S)-1-((1-(3,4-difluorobenzyl)-1H-imidazol-4-yl)amino)-1-oxopropan-2-yl)-4,4-difluoropiperidin-3-yl)pyridine 1-oxide], the concentration for half-maximal inhibition (IC50) came to 210 nM. This IC50 lies about 41-fold lower than the previous one.

Compound `C[C@H](C(=O)Nc1cn(Cc2cc(F)cc(F)c2)cn1)N1CCC(F)(F)[C@H](c2ccc(=O)n(C)c2)C1` (single isomer, unassigned) [Compound 70] came in with an IC50 above 30000 nM.

Consider “(2S)-2-[(3R)-4,4-difluoro-3-(1-methyl-6-oxopyridin-3-yl)piperidin-1-yl]-N-{1-[(3,5-difluorophenyl)methyl]imidazol-4-yl}propanamide [Compound 78]”, for which the IC50 is above 30000 nM.

Consider `C[C@@H](C(=O)Nc1cn2c(n1)CC[C@H]2c1cc(F)cc(F)c1)N1CCOCC1` (single isomer, unassigned) [Compound 514], for which the IC50 is above 30000 nM.

The compound `C[C@@H](C(=O)Nc1cn(Cc2cc(Cl)ccc2F)cn1)N1CCC(F)(F)[C@@H](c2cc[n+]([O-])cc2)C1` [Compound 33, 4-((S)-1-((S)-1-((1-(5-chloro-2-fluorobenzyl)-1H-imidazol-4-yl)amino)-1-oxopropan-2-yl)-4,4-difluoropiperidin-3-yl)pyridine 1-oxide] registered an IC50 of 30 nM.

Compound `C[C@@H](C(=O)Nc1cn(Cc2cc(F)cc(F)c2)cn1)N1CCC(F)(F)[C@@H](c2c[nH]c(=O)c(CO)c2)C1` (single isomer, unassigned) [Compound 71] returned an IC50 of 2360 nM. Against the preceding compound, the IC50 is about 79-fold higher.

`C[C@H](C(=O)Nc1cn2c(n1)CC[C@H]2c1cc(F)cc(F)c1)N1CCOCC1` (single isomer, unassigned) [Compound 513] had an IC50 above 30000 nM.

For the compound `O=C(Nc1cn(Cc2cc(F)cc(F)c2)cn1)[C@H]1C(F)(F)C12CCC2` [Compound 30, (S)—N-(1-(3,5-difluorobenzyl)-1H-imidazol-4-yl)-2,2-difluorospiro[2.3]hexane-1-carboxamide], the IC50 is 258 nM.

For `C[C@@H](C(=O)Nc1cn(Cc2ccc(F)cc2)cn1)N1CCC(F)(F)[C@@H](c2cc[n+]([O-])cc2)C1` [Compound 36, 4-((S)-4,4-difluoro-1-((S)-1-((1-(4-fluorobenzyl)-1H-imidazol-4-yl)amino)-1-oxopropan-2-yl)piperidin-3-yl)pyridine 1-oxide], the IC50 worked out at 209 nM.

Regarding `Cc1nc(NC(=O)[C@@H](C)N2CCC(F)(F)CC2)cn1Cc1cc(F)cc(F)c1` (single isomer, unassigned) [Compound 22], the IC50 came to 124 nM. Against the preceding compound, the IC50 is about 1.7-fold lower.

As to `Cc1nc(NC(=O)[C@H](C)N2CCOCC2)cn1Cc1cc(F)cc(F)c1` (single isomer, unassigned) [Compound 23], the IC50 came to 700 nM. Compared with the last compound, the IC50 is about 5.6-fold higher.
